This note sets out measurements from the supplement of paper PMC10307832.

What all share (experiment): relative viability (nuclei count vs DMSO), 5 days (fraction); higher = more cells survive
Compound in the assay “Everolimus + Alpelisib”: CO[C@H]1C[C@@H]2CC[C@@H](C)[C@@](O)(O2)C(=O)C(=O)N2CCCC[C@H]2C(=O)O[C@H]([C@H](C)C[C@@H]2CC[C@@H](OCCO)[C@H](OC)C2)CC(=O)[C@H](C)/C=C(\C)[C@@H](O)[C@@H](OC)C(=O)[C@H](C)C[C@H](C)/C=C/C=C/C=C/1C [Everolimus] + Cc1nc(NC(=O)N2CCC[C@H]2C(N)=O)sc1-c1ccnc(C(C)(C)C(F)(F)F)c1 [Alpelisib] (partner 2 µM)
The method in brief:
(§1)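 Lung cancer cell lines were pin-tool dosed in 1536-well plates on the day after seeding, with either a lone drug or a fixed anchor-drug dose plus five library-drug doses (not always all listed) in √10 steps. Nuclei were counted on 4× images after 5 days. Relative viability is the ratio of treated-well to vehicle-well nuclei counts, with each value a median of duplicate plates.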

Compound in the assay “Everolimus + Bortezomib”: CO[C@H]1C[C@@H]2CC[C@@H](C)[C@@](O)(O2)C(=O)C(=O)N2CCCC[C@H]2C(=O)O[C@H]([C@H](C)C[C@@H]2CC[C@@H](OCCO)[C@H](OC)C2)CC(=O)[C@H](C)/C=C(\C)[C@@H](O)[C@@H](OC)C(=O)[C@H](C)C[C@H](C)/C=C/C=C/C=C/1C [Everolimus] + CC(C)C[C@H](NC(=O)[C@H](Cc1ccccc1)NC(=O)c1cnccn1)B(O)O [Bortezomib] (partner 0.002 µM)
Put shortly:
as §1

Compound in the assay “Everolimus + Dasatinib”: CO[C@H]1C[C@@H]2CC[C@@H](C)[C@@](O)(O2)C(=O)C(=O)N2CCCC[C@H]2C(=O)O[C@H]([C@H](C)C[C@@H]2CC[C@@H](OCCO)[C@H](OC)C2)CC(=O)[C@H](C)/C=C(\C)[C@@H](O)[C@@H](OC)C(=O)[C@H](C)C[C@H](C)/C=C/C=C/C=C/1C [Everolimus] + Cc1nc(Nc2ncc(C(=O)Nc3c(C)cccc3Cl)s2)cc(N2CCN(CCO)CC2)n1 [Dasatinib] (partner 0.075 µM)
The method in brief:
as §1

Compound in the assay “Everolimus + Palbociclib”: CO[C@H]1C[C@@H]2CC[C@@H](C)[C@@](O)(O2)C(=O)C(=O)N2CCCC[C@H]2C(=O)O[C@H]([C@H](C)C[C@@H]2CC[C@@H](OCCO)[C@H](OC)C2)CC(=O)[C@H](C)/C=C(\C)[C@@H](O)[C@@H](OC)C(=O)[C@H](C)C[C@H](C)/C=C/C=C/C=C/1C [Everolimus] + CC(=O)c1c(C)c2cnc(Nc3ccc(N4CCNCC4)cn3)nc2n(C2CCCC2)c1=O [Palbociclib] (partner 0.5 µM)
Put shortly: as §1

For the cell line NCI-H661, the relative viability with Everolimus + Alpelisib (first compound 0.01 µM) amounted to 0.438; with Everolimus + Alpelisib (first compound 0.03162 µM), 0.345; with Everolimus + Alpelisib (first compound 0.1 µM) it was 0.35; in the assay with Everolimus + Alpelisib (first compound 0.3162 µM), 0.383; with Everolimus + Alpelisib (first compound 1 µM), 0.309; in the assay with Everolimus + Bortezomib (first compound 0.01 µM) it was 0.592. For the same cell line, the relative viability in the assay with Everolimus + Bortezomib (first compound 0.03162 µM) was found to be 0.572; with Everolimus + Bortezomib (first compound 0.1 µM), 0.518; with Everolimus + Bortezomib (first compound 0.3162 µM), 0.421; with Everolimus + Bortezomib (first compound 1 µM), 0.386; with Everolimus + Dasatinib (first compound 0.01 µM) it was 0.694; with Everolimus + Dasatinib (first compound 0.03162 µM), 0.56. Further, the relative viability in the assay with Everolimus + Dasatinib (first compound 0.1 µM) is 0.575; with Everolimus + Dasatinib (first compound 0.3162 µM), 0.615; with Everolimus + Dasatinib (first compound 1 µM), 0.472; in the assay with Everolimus + Palbociclib (first compound 0.01 µM), 0.334; with Everolimus + Palbociclib (first compound 0.03162 µM) it was 0.321; in the assay with Everolimus + Palbociclib (first compound 0.1 µM), 0.328. Further, the relative viability with Everolimus + Palbociclib (first compound 0.3162 µM) is 0.31; in the assay with Everolimus + Palbociclib (first compound 1 µM) it was 0.295.

NCI-H650: the relative viability in the assay with Everolimus + Alpelisib (first compound 0.01 µM) is 1.05; with Everolimus + Alpelisib (first compound 0.1 µM), 0.752; in the assay with Everolimus + Alpelisib (first compound 0.3162 µM) it was 0.592; in the assay with Everolimus + Alpelisib (first compound 1 µM), 0.587; in the assay with Everolimus + Bortezomib (first compound 0.01 µM) it was 0.649; with Everolimus + Bortezomib (first compound 0.1 µM), 0.556. Besides, the relative viability with Everolimus + Bortezomib (first compound 0.3162 µM) amounted to 0.571; with Everolimus + Bortezomib (first compound 1 µM) it was 0.458; with Everolimus + Dasatinib (first compound 0.01 µM), 0.363; in the assay with Everolimus + Dasatinib (first compound 0.1 µM), 0.357; with Everolimus + Dasatinib (first compound 0.3162 µM), 0.361; with Everolimus + Dasatinib (first compound 1 µM), 0.307. Further, the relative viability with Everolimus + Palbociclib (first compound 0.01 µM) amounted to 0.368; with Everolimus + Palbociclib (first compound 0.03162 µM) it was 0.262; with Everolimus + Palbociclib (first compound 0.1 µM), 0.279; with Everolimus + Palbociclib (first compound 0.3162 µM), 0.278; with Everolimus + Palbociclib (first compound 1 µM), 0.248.

NCI-H647: the relative viability with Everolimus + Alpelisib (first compound 0.01 µM) stood at 0.626; with Everolimus + Alpelisib (first compound 0.03162 µM), 0.534; in the assay with Everolimus + Alpelisib (first compound 0.1 µM) it was 0.449; with Everolimus + Alpelisib (first compound 0.3162 µM), 0.429; in the assay with Everolimus + Alpelisib (first compound 1 µM) it was 0.757; with Everolimus + Bortezomib (first compound 0.01 µM), 0.635. Moreover, the relative viability with Everolimus + Bortezomib (first compound 0.03162 µM) amounted to 0.59; with Everolimus + Bortezomib (first compound 0.1 µM) it was 0.601; in the assay with Everolimus + Bortezomib (first compound 0.3162 µM), 0.635; in the assay with Everolimus + Bortezomib (first compound 1 µM), 0.693; with Everolimus + Dasatinib (first compound 0.01 µM) it was 0.15; with Everolimus + Dasatinib (first compound 0.03162 µM) it was 0.198. The relative viability with Everolimus + Dasatinib (first compound 0.1 µM) worked out at 0.184; with Everolimus + Dasatinib (first compound 0.3162 µM) it was 0.145; in the assay with Everolimus + Dasatinib (first compound 1 µM), 0.157; with Everolimus + Palbociclib (first compound 0.01 µM) it was 0.194; with Everolimus + Palbociclib (first compound 0.03162 µM), 0.231; with Everolimus + Palbociclib (first compound 0.1 µM), 0.159. The figures for the relative viability with Everolimus + Palbociclib (first compound 0.3162 µM) and with Everolimus + Palbociclib (first compound 1 µM) were 0.137 and 0.219, respectively.

With 201T, the relative viability with Everolimus + Alpelisib (first compound 0.01 µM) is 0.919; with Everolimus + Alpelisib (first compound 0.03162 µM) it was 0.893; with Everolimus + Alpelisib (first compound 0.1 µM), 0.859; in the assay with Everolimus + Alpelisib (first compound 0.3162 µM), 0.847; with Everolimus + Alpelisib (first compound 1 µM), 0.893; with Everolimus + Bortezomib (first compound 0.01 µM), 1.01. Besides, the relative viability with Everolimus + Bortezomib (first compound 0.03162 µM) was found to be 1.01; in the assay with Everolimus + Bortezomib (first compound 0.1 µM), 0.956; with Everolimus + Bortezomib (first compound 0.3162 µM) it was 0.927; with Everolimus + Bortezomib (first compound 1 µM) it was 0.953; in the assay with Everolimus + Dasatinib (first compound 0.01 µM) it was 0.592; in the assay with Everolimus + Dasatinib (first compound 0.03162 µM) it was 0.595. Also, the relative viability in the assay with Everolimus + Dasatinib (first compound 0.1 µM) worked out at 0.521; in the assay with Everolimus + Dasatinib (first compound 0.3162 µM), 0.547; with Everolimus + Dasatinib (first compound 1 µM), 0.519; with Everolimus + Palbociclib (first compound 0.01 µM) it was 0.322; in the assay with Everolimus + Palbociclib (first compound 0.03162 µM), 0.306; with Everolimus + Palbociclib (first compound 0.1 µM) it was 0.274. Further, the relative viability with Everolimus + Palbociclib (first compound 0.3162 µM) worked out at 0.306; with Everolimus + Palbociclib (first compound 1 µM), 0.231.

In the case of NCI-H838, the relative viability with Everolimus + Alpelisib (first compound 0.01 µM) came to 0.392; with Everolimus + Alpelisib (first compound 0.03162 µM), 0.385; in the assay with Everolimus + Alpelisib (first compound 0.1 µM) it was 0.382; in the assay with Everolimus + Alpelisib (first compound 0.3162 µM), 0.343; with Everolimus + Alpelisib (first compound 1 µM), 0.347; with Everolimus + Bortezomib (first compound 0.01 µM) it was 0.42. The relative viability is 0.48 in the assay with Everolimus + Bortezomib (first compound 0.03162 µM); 0.377 with Everolimus + Bortezomib (first compound 0.1 µM); 0.41 with Everolimus + Bortezomib (first compound 0.3162 µM); 0.597 with Everolimus + Bortezomib (first compound 1 µM); 0.262 with Everolimus + Dasatinib (first compound 0.01 µM); 0.243 with Everolimus + Dasatinib (first compound 0.03162 µM). For the same cell line, the relative viability in the assay with Everolimus + Dasatinib (first compound 0.1 µM) was 0.265; in the assay with Everolimus + Dasatinib (first compound 0.3162 µM) it was 0.274; with Everolimus + Dasatinib (first compound 1 µM), 0.333; with Everolimus + Palbociclib (first compound 0.01 µM), 0.144; with Everolimus + Palbociclib (first compound 0.03162 µM) it was 0.146; with Everolimus + Palbociclib (first compound 0.1 µM), 0.159. Further, the values for the relative viability with Everolimus + Palbociclib (first compound 0.3162 µM) and with Everolimus + Palbociclib (first compound 1 µM) were 0.174 and 0.123, respectively.

As to SW 1573, the relative viability with Everolimus + Alpelisib (first compound 0.01 µM) was 0.449; with Everolimus + Alpelisib (first compound 0.03162 µM), 0.374; with Everolimus + Alpelisib (first compound 0.1 µM) it was 0.441; with Everolimus + Alpelisib (first compound 0.3162 µM) it was 0.334; in the assay with Everolimus + Alpelisib (first compound 1 µM) it was 0.346; in the assay with Everolimus + Bortezomib (first compound 0.01 µM), 0.707. The relative viability with Everolimus + Bortezomib (first compound 0.03162 µM) amounted to 0.512; with Everolimus + Bortezomib (first compound 0.1 µM) it was 0.602; in the assay with Everolimus + Bortezomib (first compound 0.3162 µM) it was 0.491; with Everolimus + Bortezomib (first compound 1 µM), 0.636; with Everolimus + Dasatinib (first compound 0.01 µM) it was 0.259; in the assay with Everolimus + Dasatinib (first compound 0.03162 µM), 0.353. The relative viability turned out to be 0.207 in the assay with Everolimus + Dasatinib (first compound 0.1 µM); 0.244 in the assay with Everolimus + Dasatinib (first compound 0.3162 µM); 0.215 with Everolimus + Dasatinib (first compound 1 µM); 0.237 in the assay with Everolimus + Palbociclib (first compound 0.01 µM); 0.201 with Everolimus + Palbociclib (first compound 0.03162 µM); 0.175 with Everolimus + Palbociclib (first compound 0.1 µM). The relative viability was found to be 0.224 with Everolimus + Palbociclib (first compound 0.3162 µM) and 0.225 with Everolimus + Palbociclib (first compound 1 µM).

In the case of PC-14, the relative viability was found to be 0.796 with Everolimus + Alpelisib (first compound 0.01 µM); 0.661 in the assay with Everolimus + Alpelisib (first compound 0.03162 µM); 0.62 in the assay with Everolimus + Alpelisib (first compound 0.1 µM); 0.589 with Everolimus + Alpelisib (first compound 0.3162 µM); 0.476 with Everolimus + Alpelisib (first compound 1 µM); 0.876 with Everolimus + Bortezomib (first compound 0.01 µM). Besides, the relative viability was 0.84 with Everolimus + Bortezomib (first compound 0.03162 µM); 0.864 with Everolimus + Bortezomib (first compound 0.1 µM); 0.658 in the assay with Everolimus + Bortezomib (first compound 0.3162 µM); 0.713 with Everolimus + Bortezomib (first compound 1 µM); 0.23 with Everolimus + Dasatinib (first compound 0.01 µM); 0.168 with Everolimus + Dasatinib (first compound 0.03162 µM). Moreover, the relative viability amounted to 0.216 with Everolimus + Dasatinib (first compound 0.1 µM); 0.237 in the assay with Everolimus + Dasatinib (first compound 0.3162 µM); 0.177 with Everolimus + Dasatinib (first compound 1 µM); 0.43 with Everolimus + Palbociclib (first compound 0.01 µM); 0.368 with Everolimus + Palbociclib (first compound 0.03162 µM); 0.336 with Everolimus + Palbociclib (first compound 0.1 µM). The relative viability with Everolimus + Palbociclib (first compound 0.3162 µM) was 0.301; with Everolimus + Palbociclib (first compound 1 µM) it was 0.295.
